pIC50: −log10 of the molar value.

This assay has as its target Thromboxane A2 receptor (Cavia porcellus). The experiment in a line: Compound was evaluated for its ability to inhibit specific binding of [3H]U-46619 to Thromboxane A2/ Prostaglandin H2 receptor in guinea pig platelet membrane.

As for `Cc1c(C)c(O)c(C(=CCCCCC(=O)O)c2ccc(F)cc2)c(C)c1O`, the negative logarithm of the IC50 (pIC50) is 5.85.
The molecule `Cc1c(C)c(C(CCCCCC(=O)O)c2ccc(F)cc2)c(O)c(C)c1C=O` (configuration not stated) showed a negative logarithm of the IC50 (pIC50) of 7.52.

These data come from BindingDB's records for doi:10.1021/jm00090a009 (Takeda Chemical Industries, 1992).
